# Test results reported in patent US9724408B2, “Compositions and methods for activating stimulator of interferon gene-dependent signalling” (ADURO BIOTECH, INC., priority 2013, dated 2017).
# Tests used:
# THP1-Blue™ ISG cells = test: Type I interferon induction in THP1-Blue ISG reporter cells (QUANTI-Blue, A655); format: cell-based, human; settings: 100 μM for 30 minutes, supernatants after overnight incubation, FIG. 7
# Description: To determine the relative level of type I interferon induced in human cells by each of the native and derivative molecules as a signature of adjuvant potency, 4×10^5 THP1-Blue™ ISG cells (a human monocyte cell line transfected with an IRF-inducible secreted embryonic alkaline phosphatase reporter gene (Invivogen) which express alkaline phosphatase under the control of a promoter comprised of five IFN-stimulated response elements) were incubated with 100 μM of cyclic [G(3′,5′)pG(3′,5′)p] (CDG), cyclic [G(2′,5′)pG(3′,5′)p] (mixed linkage, or ML-CDG), or HBSS for 30 minutes at 37° C. with 5% CO2. After 30 minutes, cells were washed and plated in 96-well dish in RPMI media containing 10% FBS, and incubated at 37° C. with 5% CO2. Cell culture supernatants from each sample were collected after overnight incubation, and 20 μL of the cell culture supernatants was added to 180 μL QUANTI-Blue reagent (Invivogen) and incubated for 45 minutes to evaluate type I interferon protein levels. Readings at Absorbance 655 nm were taken every 3 minutes using a Versa Max kinetic spectrophotometer (Molecular Diagnostics).
# […]. After 30 minutes, cells were washed and plated in 96-well dish in RPMI media containing 10% FBS, and incubated at 37° C. with 5% CO2. Cell culture supernatants from each sample were collected after overnight incubation, and 20 μL of the cell culture supernatants was added to 180 μL QUANTI-Blue reagent (Invivogen) and incubated for 45 minutes. Readings at Absorbance 655 nm were taken at 15 minutes using a SpectraMax spectrophotometer (Molecular Diagnostics).
# The induction of type I interferon in human cells was measured to evaluate the potency of untreated and phosphodiesterase-treated oxo, Rp monothio and Rp, Rp dithio derivatives. […]. After 30 minutes, cells were washed and plated in a 96-well dish in RPMI media containing 10% FBS, and incubated at 37° C. with 5% CO2. Cell culture supernatants from each sample were collected after 16 hr incubation, and 20 μL of the cell culture supernatants was added to 180 μL QUANTI-Blue reagent (Invivogen) and incubated for 25 minutes to evaluate type I interferon protein levels. Readings at Absorbance 655 nm were measured with a Versa Max spectrophotometer (Molecular Diagnostics).
# primary human PBMCs [1] = test: Interferon gene expression in primary human PBMCs (real-time quantitative RT-PCR); format: cell-based; settings: 5 μM, Effectene transfection, 6 hrs, four donors, FIG. 8
# Description: (§1) To determine the levels of IFN-α, -β and -γ induced by cyclic [G(2′,5′)pG(3′,5′)p] (ML-CDG) compared to cyclic [G(3′,5′)pG(3′,5′)p] as a signature of potency to activate innate immunity, 1×10^6 primary human PBMCs isolated from four independent human donors were incubated in a 96 well U bottom plate for 30 min at 37° C., 5% CO2 with 5 or 0.5 μM of cyclic [G(3′,5′)pG(3′,5′)p] (CDG) or cyclic [G(2′,5′)pG(3′,5′)p] (ML-CDG), 1 μg/mL of Interferon Stimulatory DNA (ISD), or 4 μg/mL of Poly (I:C) utilizing Effectene transfection reagent (Qiagen) to transfer the molecules into the PBMC. ISD (Interferon Stimulating DNA) is TLR independent (Stetston, D. B. et. al. Immunity 24, 93-103, January 2006) and signals through cGAS, and is thus STING-dependent, while Poly (I:C) can signal through both TLR3 and RIG-I pathways, and are thus STING-independent. After 30 minutes, the cells were washed and replaced with RPMI media containing 10% FBS and incubated at 37° C., 5% CO2. After 6 hrs incubation, a portion of the cells were harvested and assessed by real-time quantitative RT-PCR for gene expression of the type I cytokines interferon alpha 2 (IFNA2) and interferon beta 1 (IFNB1), and the type II cytokine gene interferon gamma (IFNG). Gene expression was determined by real-time quantitative RT-PCR using the PrimePCR RNA purification and cDNA analysis system, and run on the CFX96 gene cycler (all BioRad). Normalized expression was determined for each, which accounts for the different efficiencies of PCR amplification for the target (Etarget) and the reference (Ereference), and transforms the logarithmic scaled raw data unit Cycle Threshold (CT) into the linear unit of Normalized Expression. […] To assess correlative secreted protein levels of these cytokines, supernatants were harvested from the remaining cells after 24 hours incubation and IFN-α and -γ levels were determined by Cytometric Bead Array (CBA, BD Biosciences), while IFN-β levels were determined by ELISA (PBL).
# primary human PBMCs [2] = test: Secreted interferon protein in primary human PBMCs (CBA, ELISA); format: cell-based; settings: 24 hours, four donors
# Description: as §1
# OVA257-264 peptide [3] = test: OVA-specific CD8 T cell response after CDN-adjuvanted OVA vaccination (IFNγ ELISpot); format: in vivo, C57BL/6 mice; settings: subcutaneous
# Description: To determine the OVA-specific CD8 T cell response induced by the different cyclic dinucleotide molecules, C57BL/6 mice (n=5) were immunized subcutaneously with 0 μg (no CDN) or 5 μg or 25 μg [G(2′,5′)pG(3′,5′)p] (mixed linkage or ML-CDG) formulated in 2% squalene-and-water with 10 μg ovalbumin protein. Seven days following the vaccination, blood was collected from each animal, and PBMCs were prepared. 5×10^4 PBMCs were stimulated overnight in an IFNγ ELISpot assay with media alone (unstimulated) or with 1 μM OVA257-264 peptide in the presence of 1×10^5 naïve splenocytes as feeder cells. IFNγ ELISpots were developed and quantified using a CTL plate reader and ImmunoSpot software.
# To determine whether STING signaling is required for c[G(2′,5′)pG(3′,5′)p] (ML-CDG) to induce an OVA-specific CD8 T cell response, C57BL/6 mice (n=3 or 5) and goldenticket mice (n=3) were immunized subcutaneously with either 0 μg (no CDN) or 25 μg c[G(2′,5′)pG(3′,5′)p] (ML-CDG) formulated in 2% squalene-and-water with 10 μg ovalbumin protein. Seven days following the vaccination, blood was collected from each animal, and PBMCs were prepared. […] IFNγ ELISpots were developed and quantified using a CTL plate reader and ImmunoSpot software.
# OVA257-264 peptide [4] = test: OVA-specific CD8 T cell response in goldenticket (STING−/−) mice (IFNγ ELISpot); format: in vivo; settings: 25 μg in 2% squalene-and-water with 10 μg ovalbumin, subcutaneous, day 7, FIG. 17
# Description: To determine whether STING signaling is required for c[G(2′,5′)pG(3′,5′)p] (ML-CDG) to induce an OVA-specific CD8 T cell response, C57BL/6 mice (n=3 or 5) and goldenticket mice (n=3) were immunized subcutaneously with either 0 μg (no CDN) or 25 μg c[G(2′,5′)pG(3′,5′)p] (ML-CDG) formulated in 2% squalene-and-water with 10 μg ovalbumin protein. Seven days following the vaccination, blood was collected from each animal, and PBMCs were prepared. 5×10^4 PBMCs were stimulated overnight in an IFNγ ELISpot assay with media alone (unstimulated) or with 1 μM OVA257-264 peptide in the presence of 1×10^5 naïve splenocytes as feeder cells. IFNγ ELISpots were developed and quantified using a CTL plate reader and ImmunoSpot software.
smiles,measurement,setting,value
"Nc1nc2c(ncn2C2OC3COP(=O)(O)OC4C(O)C(COP(=O)(O)OC3C2O)OC4n2cnc3c(=O)[nH]c(N)nc32)c(=O)[nH]1 (stereo not shown) [ML-CDG, cyclic-[G(2′,5′)pG(3′,5′)p]]",levels of IFN-β (type I interferon protein levels),THP1-Blue™ ISG cells,"significantly higher levels of IFN-β than cyclic [G(3′,5′)pG(3′,5′)p]"
same,gene expression for interferon gamma (IFNG),primary human PBMCs [1],significantly higher level
same,gene expression of interferon alpha 2 (IFNA2),primary human PBMCs [1],significantly higher
same,gene expression of interferon beta 1 (IFNB1),primary human PBMCs [1],significantly higher
same,secretion of IFN-γ,"primary human PBMCs [2]; 5 μM and 0.5 μM, CBA, FIG. 9(c)","higher levels of IFN-γ than cyclic [G(3′,5′)pG(3′,5′)p] at the same doses, and higher levels than the ISD and Poly I:C controls"
same,levels of secreted IFN-α,"primary human PBMCs [2]; 5 μM, CBA, FIG. 9(a)","higher than cyclic [G(3′,5′)pG(3′,5′)p] at the same or lower dose"
same,levels of IFN-β,"primary human PBMCs [2]; 5 μM, ELISA, FIG. 9(b)","higher than with cyclic [G(3′,5′)pG(3′,5′)p] induced levels, as well as for the ISD and Poly I:C controls"
same,OVA-specific CD8 immune responses,"OVA257-264 peptide [3]; 5 μg or 25 μg in 2% squalene-and-water with 10 μg ovalbumin, day 7, FIG. 16",significantly higher than responses induced by unstimulated controls and by a no CDN control group
same,"OVA-specific CD8 T cell response, wild-type mice","OVA257-264 peptide [3]; 25 μg in 2% squalene-and-water with 10 μg ovalbumin, day 7, FIG. 17",induces significant OVA257-264 immune responses compared to unstimulated control and a no CDN control
same,"OVA-specific CD8 T cell response, goldenticket mice",OVA257-264 peptide [4],not significantly different than the OVA-specific responses induced by a control formulation that does not include CDN
